Tested on: VEGF
Assay: VEGF-ELISA assay: VEGF secretion from HL-1 cardiomyocyte cell line
Format: cell-based, Murine
Details: HL-1 cells, 18 hr, VEGF in conditioned media by ELISA; read-out: EC50 (concentration of compound that induces the production of an amount of VEGF equal to half the maximum amount of VEGF induced by that compound)
Experimental: ^1EC50 is the concentration of compound that induces the production of an amount of VEGF equal to half the maximum amount of VEGF induced by that compound.
Any compound of the present invention can be screened by a VEGF-ELISA assay. VEGF secretion is assayed in the HL-1 cardiomyocyte cell line as described in Claycomb, W. C., “HL-1 cells: a cardiac muscle cell line that contracts and retains phenotypic characteristics of the adult cardiomyocyte”, Proc. Natl. Acad. Sci U.S.A., Vol. 95, pp. 2979-84 (1998). For experiments, HL-1 cells are plated in 96-well plates at a density of 2×10^4 cells per well in growth medium: EXCEL 320 media (JRH Biosciences, Lenexia, Kans.) plus 10% fetal bovine serum (BioWhitaker), 100 nM retinoic acid (Sigma, St Louis, Mo.), 10 μM norepinephrine (Sigma), 10 μg/ml insulin (Life Technologies, Grand Island, N.Y.), 1× non-essential amino acid supplement (Life Technologies), 50 μg/ml endothelial cell growth supplement (Upstate Biotechnology, Lake Placid, N.Y.), 100 units/ml penicillin, 100 units/mil streptomycin (Life Technologies). After 24 hrs, the media is replaced with a low-growth media (HL-1 media with 2% fetal bovine serum and without endothelial cell growth supplement) containing test compounds with 0.5% dimethyl sulfoxide (DMSO). After 18 hrs, conditioned media from the treated cells was assayed for VEGF content with a Murine VEGF-ELISA kit (R & D Systems, Minneapolis, Minn.). The amount of VEGF secreted into the media over an 18 hr period is normalized to positive control wells which are treated with a maximally effective concentration (1 mM) of deferoxamine mesylate (Sigma, St. Louis) and are reported as “percent activity,” where the VEGF in unstimulated wells is defined as 0% and the VEGF in wells treated with 1 mM deferoxamine is defined as 100%. Potency is determined by stimulating cells with 10 concentrations of test compounds (200 nM to 100 μM) and fitting the data to a variable slope sigmoidal dose-response curve using GraphPad Prism version 3.00 for Windows 95 (GraphPad Software, San Diego, Calif.). Determinations for each test compound are performed in three separate experiments and the means ±standard deviation of the Log(EC50) and maximum response are evaluated. Compounds for pharmaceutical use are selected based upon the greatest percent activity.

Question: With FC(F)(F)c1cnc(N/N=C/c2ccccn2)c(Cl)c1 [Example 10, N-(3-Chloro-5-trifluoromethyl-pyridin-2-yl)-N′-pyridin-2-ylmethylene-hydrazine] as the compound, how does the EC50 read?
Answer: Its EC50 is 1.56 µM.

Question: Oc1ccccc1/C=N/Nc1ccccn1 [Example 20, 2-Pyridyl-(2-hydroxy-benzylidene)-hydrazide] was tested. Which EC50 did it give?
Answer: The EC50 was 5.7 µM.

Question: For C(=N\Nc1ccccc1)/c1ccccn1 [Example 16, N-Phenyl-N′-pyridin-2-ylmethylene-hydrazine], which EC50 is on record?
Answer: The EC50 was 13 µM.

Question: How did the EC50 turn out when Oc1ccccc1/C=N/Nc1nccnc1Cl [Example 19, 2-[(3-Chloro-pyrazin-2-yl)-hydrazonomethyl]-phenol] was run?
Answer: The EC50 was 15 µM.

Question: C/C(=N\N(C)c1ccccn1)c1ccccn1 [Example 5, N-Methyl-N-pyridin-2-yl-N′-(1-pyridin-2-yl-ethylidene)-hydrazine] was tested. Which EC50 did it give?
Answer: The EC50 was 26.2 µM.

Question: For COc1cccc(/C=N/Nc2ccccn2)c1O [Example 23, 2-Methoxy-6-(pyridin-2-yl-hydrazonomethyl)-phenol], which EC50 is on record?
Answer: The EC50 was 7 µM.

Question: C/C(=N\Nc1nnc2c(n1)[nH]c1ccccc12)c1ccccn1 [Example 15, N-(1-Pyridin-2-yl-ethylidene)-N-(9H-1,3,4,9-tetraaza-fluoren-2-yl)-hydrazine] was tested. Which EC50 did it give?
Answer: Its EC50 is 0.36 µM.

Question: Which EC50 does the source give for C(=N\Nc1nnc2c(n1)[nH]c1ccccc12)/c1ccccn1 [Example 14, N-Pyridin-2-ylmethylene-N′-(9H-1,3,4,9-tetraaza-fluoren-2-yl)-hydrazine] here?
Answer: The EC50 was 2.3 µM.

Question: Which EC50 does the source give for Oc1ccccc1/C=N/Nc1ccccc1 [Example 18, 2-(Phenyl-hydrazonomethyl)-phenol] here?
Answer: Its EC50 is 14 µM.

Question: With CN(/N=C/c1ccccn1)c1ccccn1 [Example 3, N-methyl-N-pyridin-2-yl-N′-pyridin-2-ylmethylene-hydrazine] as the compound, how does the EC50 read?
Answer: Its EC50 is 0.75 µM.

Question: Which EC50 does the source give for C/C(=N\Nc1ccc(C(F)(F)F)cc1)c1ccccn1 [Example 13, N-(1-Pyridin-2-yl-ethylidene)-N′-(4-trifluoromethyl-phenyl)-hydrazine] here?
Answer: The EC50 was 4.3 µM.

Question: With Clc1ccc(N/N=C/c2ccccn2)nn1 [Example 9, N-(6-Chloro-pyridazin-3-yl)-N′-pyridin-2-ylmethylene-hydrazine] as the compound, how does the EC50 read?
Answer: The EC50 was 6.7 µM.

Question: How did the EC50 turn out when Cc1ncc(CO)c(/C=N/Nc2ccccn2)c1O [Example 22, 5-Hydroxymethyl-2-methyl-4-(pyridin-2-yl-hydrazonomethyl)-3-ol] was run?
Answer: The EC50 was 1.77 µM.

Question: With C(=N\Nc1ccc2ccccc2n1)/c1ccccn1 [Example 7, N-Pyridin-2-ylmethylene-N′-quinolin-2-yl-hydrazine] as the compound, how does the EC50 read?
Answer: The EC50 was 3.15 µM.

Question: For Cc1cccc(/C=N/Nc2ccc(Cl)nn2)n1 [Example 26, N-(6-Chloro-pyridazine-3-yl)-N′-(6-methyl-pyridin-2-ylmethylene)-hydrazine], which EC50 is on record?
Answer: The EC50 was 40 µM.

Question: Which EC50 does the source give for Cc1sc2ncnc(N/N=C/c3c(O)ccc4ccccc34)c2c1C [Example 27] here?
Answer: The EC50 was 1.8 µM.

Question: For Oc1ccc(/C=N/Nc2nccnc2Cl)c(O)c1 [Example 21, 4-[(3-Chloro-pyrazin-2-yl)-hydrazonomethyl]-benzene-1,3-diol], which EC50 is on record?
Answer: The EC50 was 10.3 µM.

Question: How did the EC50 turn out when c1ccc(CNNc2ccccn2)nc1 [Example 4, N-Pyridin-2-yl-N′-pyridin-2-ylmethyl-hydrazine] was run?
Answer: Its EC50 is 5.7 µM.

Question: For Cc1cccc(/C=N/Nc2ccccn2)n1 [Example 25, N-(6-Methyl-pyridin-2-ylmethylene)-N′-pyridin-2-yl-hydrazine], which EC50 is on record?
Answer: The EC50 was 28.6 µM.

Question: How did the EC50 turn out when C/C(=N\Nc1ccccn1)c1ccccn1 [Example 2, N-Pyridin-2-yl-N′-(1-pyridin-2-yl-ethylidene)hydrazine] was run?
Answer: The EC50 was 0.65 µM.

Question: With Oc1ccc(/C=N/Nc2nc(N3CCCC3)nc(N3CCCC3)n2)cc1O [Example 28, 4-[(4,6-Di-pyrrolidin-1-yl-[1,3,5]triazin-2-yl)-hydrazonomethyl]-benzene-1,2-diol] as the compound, how does the EC50 read?
Answer: Its EC50 is 1.1 µM.

Question: How did the EC50 turn out when C/C(=N\Nc1nc(C)cc(C)n1)c1ccccn1 [Example 12, N-(4,6-Dimethyl-pyrimidin-2-yl)-N′-(1-pyridin-2-yl-ethylidien)-hydrazine] was run?
Answer: The EC50 was 4.78 µM.

Question: How did the EC50 turn out when Cc1ccccc1/C=N/Nc1ccccc1 [Example 17, N-(2-Methyl-benzylidene)-N′-phenyl-hydrazine] was run?
Answer: Its EC50 is 15 µM.

Question: Which EC50 does the source give for C(=N\Nc1ccccn1)/c1ccccn1 [Example 1, N-Pyridin-2-yl-N′-2-ylmethylene-hydrazine] here?
Answer: Its EC50 is 1.6 µM.

Question: For C(=N\Nc1nc2ccccc2s1)/c1ccccn1 [Example 6, N-Benzothiazol-2-yl-N′-pyridin-2-ylmethylene-hydrazine], which EC50 is on record?
Answer: The EC50 was 1.5 µM.

Question: FC(F)(F)c1cc(C(F)(F)F)c2ccc(N/N=C/c3ccccn3)nc2n1 [Example 8, N-(5,7-Bis-trifluoromethyl-[1,8]naphthyridin-2-yl)-N′-pyridin-2-ylmethylene-hydrazine] was tested. Which EC50 did it give?
Answer: The EC50 was 1.57 µM.

Question: Which EC50 does the source give for CN(/N=C/c1ccccn1)c1ncc(C(F)(F)F)cc1Cl [Example 11, N-(3-Chloro-5-trifluoromethyl-pyridin-2-yl)-N-methyl-N′pyridin-2-ylmethylene-hydrazine] here?
Answer: Its EC50 is 15 µM.

Source: patent US6660737B2, “Medicinal uses of hydrazones” (The Procter & Gamble Company, priority 2001, dated 2003)
